Patent US12479905B2, “Peptide used for immunotherapeutics” (3H BIO. CO., LTD., priority 2020, dated 2025)
Non-standard residues stand in square brackets, D forms with d. No end group written: not given here. Cha = N[C@@H](CC1CCCCC1)C(=O)O; Ahx = NCCCCCC(=O)O

What was measured:
[1] = Weight measurement of high-fat-diet mice after in vivo administration of peptide composition (Experimental Example 7); details: C57BL/6J male, high-fat diet after 10 weeks; intramuscular administration at 8, 10, 12 and 14 weeks of age; 50 μg peptide/100 μL with PHAD and Alhydrogel
Excerpt: In order to test the effect of the composition for in vivo administration prepared in Experimental Example 1.5, C57BL/6, Balbc and/or ICR species were used as experimental mice (purchased from Central Lab Animal Inc.). Although there were some differences in species, the mice purchased were 7-week-old on average and they were acclimatized for one week, and were used for experiments when they were 8 weeks of age. Experimental mice were reared under the conditions of a constant temperature and humidity environment within the temperature range of 23±1° C., relative humidity of 50±5%, and an environment controlled as 12-hour light room/12 hour dark room. Drinking water and food were provided ad libitum. In the case of a normal diet (purchased from Central Lab Animal Inc.), it consisted of 20% protein, 70% carbohydrate, and 10% fat based on total calories, whereas in the case of an obesity-inducing diet (purchased from Research diets), it consisted of a high-fat diet including 20% protein, 20% carbohydrate, and 60% fat based on total calories. Experimental mice were divided into each group to have different dietary conditions and composition administration conditions, and experiments were performed with the number of individuals that could be statistically processed for each experimental group. Detailed conditions are as disclosed in each specific experimental example.
For a test subject prepared in Experimental Example 1.6, different compositions were administered for each experimental group. All administration compositions were administered by an intramuscular injection method, and after disinfecting muscles of both thighs of each mouse with an alcohol swab, 50 μL each with a total amount of 100 μL was injected.
From the time of arrival to the end of the experiment for each experimental group of mice, the average was calculated after measuring three times per week to obtain the average weight value for each week. After completion of the experiment, each mouse was anesthetized, organs were dissected, and weights were measured, and the average was obtained for each experimental group.
According to Experimental Example 1.7, the composition for in vivo administration was administered to the test subject. In particular, the administration cycle was as follows: 8 weeks, 10 weeks, 12 weeks, and 14 weeks of age.
(1) According to Experimental Example 1.8, the weight of a test subject for each experimental group was measured.

[2] = system: RNVPPIFNDVYWIAF (SEQ ID NO: 6); assay: Confirmation of antibody titer in serum by ELISA using the target antigen (Experimental Example 7); assay type: in vivo, C57BL/6J, male mice; details: serum at 11, 16 and 19 weeks of age; ELISA antigen SEQ ID NO: 6 only; administration at 8, 10, 12 and 14 weeks
Excerpt: In order to determine whether the composition for in vivo administration administered in Experimental Example 1.7 induced an antibody against the B-cell epitope, a method for confirming the antibody titer using the target antigen is as follows. In particular, the target antigen is RNVPPIFNDVYWIAF (SEQ ID NO: 6) or ApoB100. The time to confirm the antibody titer may vary as needed, and the time was specifically described for each experimental example.
1-1) For each injection of a composition for in vivo administration into a test subject, collect about 200 μL of blood from the subject's tail vein one week after the injection.
1-2) After placing the collected blood at 4° C. for one hour, perform centrifugation of the blood sample at 14,000 rpm for 10 minutes to separate the serum, which is the supernatant.
1-3) Dilute the target antigen to a concentration of 50 μg/100 μL in coating buffer (0.05 M, bicarbonate, pH 9.6) and add the antigen to a 96-well plate in an amount of 50 μg per well, and allow them to react overnight at 4° C. so that the peptide is coated on the wall of the well.
1-4) Wash the target antigen-coated plate three times using 300 μL of phosphate buffered saline (PBS)-T (0.05% with Tween-20) per well.
2-1) Add 300 μL of a 0.5% casein blocking solution per well in the plate, and allow to react overnight at 4° C.
2-2) Wash the plate three times with 300 μL of PBS-T per well.
3-1) As the primary antibody reaction, dilute the separated serum to an appropriate concentration, add it in an amount of 100 μL per well, and allow to react at 37° C. for one hour. In particular, after the initial injection, subject the serum to serial dilution by diluting the same to 1/20 to 1/1,000 in the experiment, and 1/500 to 1/10,000 depending on the subject during the experiment after the second to third injections. As a positive control, use a monoclonal antibody against the peptide of SEQ ID NO: 41 after purification.
3-2) After the reaction of 3-1, wash the plate three times with 300 μL of PBS-T per well.
4-1) As a secondary antibody reaction, add 100 μL of horseradish peroxidase (HRP) conjugated to anti-mouse IgG antibody recognizing a mouse antibody per well, and allow them to react at 37° C. for one hour.
4-2) After the reaction of 4-1), wash the plate three times with 300 μL of PBS-T per well.
5-1) Add 100 μL of a o-phenylenediamine dihydrochloride (OPD) solution per well, and allow to react at 37° C. for 10 minutes, and measure the absorbance at OD 450 nm (Synergy HT microplate reader, BioTek).
Obtain the antibody titer in serum by converting the extinction coefficient, which is measured based on 1 mg/mL concentration of the monoclonal antibody against the target antibody as a positive control.
(2) According to Experimental Example 1.9, the antibody titers observed in a test subject for each experimental group at 11 weeks, 16 weeks, and 19 weeks were confirmed. In particular, the target antigen was determined using RNVPPIFNDVYWIAF (SEQ ID NO: 6).

Substance	weight loss effect compared to the control group (Obese) [1]	antibody titer to RNVPPIFNDVYWIAF (SEQ ID NO: 6) [2]
GSHHHHHHGSDDDDKZaK(Cha)VAAWTLKAAaZRNVPPIFNDVYWIAF (GSHHHHHHGSDDDDK[Ahx][dA]K[Cha]VAAWTLKAA[dA][Ahx]RNVPPIFNDVYWIAF) [P3]	weight loss effect appeared	observed
KTTKQSFDLSVKAQYKKNKHZaK(Cha)VAAWTLKAAaZCRFRGLISLSQVYLS (KTTKQSFDLSVKAQYKKNKH[Ahx][dA]K[Cha]VAAWTLKAA[dA][Ahx]CRFRGLISLSQVYLS) [P4]	there was a weight loss effect	–
RNVPPIFNDVYWIAFCRFRGLISLSQVYLSZaK(Cha)VAAWTLKAAaZ (RNVPPIFNDVYWIAFCRFRGLISLSQVYLS[Ahx][dA]K[Cha]VAAWTLKAA[dA][Ahx]) [P5]	a weight loss effect is observed	–
RNVPPIFNDVYWIAFK(Cha)VAAWTLKAA (RNVPPIFNDVYWIAFK[Cha]VAAWTLKAA) [P8]	weight loss effect was shown	shown
RNVPPIFNDVYWIAFK(Cha)VAAWTLKAAHHHHHH (RNVPPIFNDVYWIAFK[Cha]VAAWTLKAAHHHHHH) [P9]	weight loss effect appeared	observed
RNVPPIFNDVYWIAFZaK(Cha)VAAWTLKAAaZ (RNVPPIFNDVYWIAF[Ahx][dA]K[Cha]VAAWTLKAA[dA][Ahx]) [P7]	weight loss effect appeared	observed
RNVPPIFNDVYWIAFZaK(Cha)VAAWTLKAAaZCRFRGLISLSQVYLS (RNVPPIFNDVYWIAF[Ahx][dA]K[Cha]VAAWTLKAA[dA][Ahx]CRFRGLISLSQVYLS) [P1]	weight loss effect	there were individuals showing a large antibody titer depending on the individual, and there were also individuals which showed no antibody titer
RNVPPIFNDVYWIAFZaK(Cha)VAAWTLKAAaZGSHHHHHHGSDDDDK (RNVPPIFNDVYWIAF[Ahx][dA]K[Cha]VAAWTLKAA[dA][Ahx]GSHHHHHHGSDDDDK) [P2]	weight loss effect appeared	observed
